The assay addresses T1, human PD-1 / PD-L1-Ig binding on Jurkat cell line over-expressing human PD-1 (Jurkat-PD-1) (Homo sapiens, UniProt Q15116).
T1 construct: expressed in transfected cells; host or cells: Jurkat
The assay can be described thus: Jurkat-PD-1 Cell Binding High-Content Screening Assay (CBA). The class given is cell-based. As to conditions: PE-labeled PD-L1-Ig 20 nM final. In a few lines:
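Cell-bound PE-labeled PD-L1-Ig (20 nM final, 1 h) measured by high-content imaging after fixation and Hoechst 33342 counterstain. Compound was applied first for 2 h at 37° C. to Jurkat cells over-expressing human PD-1 in DMEM with 10% FCS.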

[1] abbreviates: Jurkat-PD-1 cells, read-out: Jurkat HPD1_PDL1 IC50.

Read-outs that look alike come from different tables or passages of the source. Where a SMILES comes first, the peptide text is derived from it. Bridges are numbered along the chain shown (N, C = ends). [ ]: non-standard residue; d: D form. The star is where a group is joined. Phe(4-COOH) = N[C@@H](Cc1ccc(C(=O)O)cc1)C(=O)O; Bip = N[C@@H](Cc1ccc(-c2ccccc2)cc1)C(=O)O; Phe(3-Me) = Cc1cccc(C[C@H](N)C(=O)O)c1; Val(3-OH) = CC(C)(O)[C@H](N)C(=O)O; aIle = CC[C@@H](C)[C@H](N)C(=O)O; 3Pal = N[C@@H](Cc1cccnc1)C(=O)O; 4Pal = N[C@@H](Cc1ccncc1)C(=O)O; Cha = N[C@@H](CC1CCCCC1)C(=O)O; Cit = NC(=O)NCCC[C@H](N)C(=O)O; Chg = N[C@H](C(=O)O)C1CCCCC1; Carboxymethyl = O=C(O)C*; Nle = CCCC[C@H](N)C(=O)O; Orn = NCCC[C@H](N)C(=O)O; Dab = NCC[C@H](N)C(=O)O; Dap = NC[C@H](N)C(=O)O

T1 sequence (Q15116 25-288): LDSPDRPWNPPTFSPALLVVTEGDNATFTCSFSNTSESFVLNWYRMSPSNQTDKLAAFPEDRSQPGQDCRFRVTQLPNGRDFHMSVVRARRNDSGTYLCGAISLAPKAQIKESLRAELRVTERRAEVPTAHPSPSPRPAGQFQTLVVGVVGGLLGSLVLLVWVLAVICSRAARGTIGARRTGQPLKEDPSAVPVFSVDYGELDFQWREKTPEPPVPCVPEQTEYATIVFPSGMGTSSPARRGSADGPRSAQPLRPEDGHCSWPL

For `CC(C)C[C@@H]1NC(=O)[C@H](CCN)NC(=O)[C@@H](CC(C)C)NC(=O)[C@H](CCCN)NC(=O)[C@H](C(C)C)NC(=O)[C@H](Cc2ccc(-c3ccccc3)cc2)NC(=O)[C@H](C(C)C)NC(=O)[C@H](Cc2c[nH]c3ccccc23)NC(=O)[C@H](CC(=O)O)NC(=O)[C@H](Cc2ccc(C(=O)O)cc2)NC(=O)[C@H](Cc2cccnc2)NC(=O)CSC[C@@H](C(=O)N[C@@H](C)C(N)=O)NC(=O)[C@H]([C@@H](C)O)NC(=O)[C@H](C(C)C)NC1=O` [Compound 1049] ({CH2CO}-[3Pal][Phe(4-COOH)]DWV[Bip]V[Orn][dL][Dab]LVTCA-NH2; thioether N-14), the IC50 under setting [1] came out at 7.2 nM.

For the molecule `CCCC[C@@H]1NC(=O)[C@H](CCCNC(=N)N)NC(=O)[C@@H](CC(C)C)NC(=O)[C@H](CCCN)NC(=O)[C@H]([C@@H](C)CC)NC(=O)[C@H](Cc2ccc(-c3ccccc3)cc2)NC(=O)[C@H](C(C)C)NC(=O)[C@H](Cc2c[nH]c3ccccc23)NC(=O)[C@H](CC(=O)O)NC(=O)[C@H](Cc2ccc(O)cc2)NC(=O)[C@H](CC(N)=O)NC(=O)CSC[C@@H](C(=O)N[C@@H](C)C(N)=O)NC(=O)[C@H]([C@@H](C)O)NC(=O)[C@H](C(C)C)NC1=O` [Compound 1151] ({CH2CO}-NYDWV[Bip]I[Orn][dL]R[Nle]VTCA-NH2; thioether N-14), under setting [1], the IC50 amounted to 70.9 nM.

Consider `CC(C)C[C@H]1NC(=O)[C@H](CCCN)NC(=O)[C@H](CCCNC(N)=O)NC(=O)[C@H](Cc2ccc(-c3ccccc3)cc2)NC(=O)[C@H](CC2CCCCC2)NC(=O)[C@H](Cc2c[nH]c3ccccc23)NC(=O)[C@H](CC(=O)O)NC(=O)[C@H](Cc2ccc(OCC(=O)O)cc2)NC(=O)[C@H](CN)NC(=O)CSC[C@@H](C(=O)N[C@@H](C)C(N)=O)NC(=O)[C@H]([C@@H](C)O)NC(=O)[C@H](C(C)C)NC(=O)[C@H](CC2CCCCC2)NC(=O)[C@H](CCN)NC1=O` [Compound 1361] ({CH2CO}-[Dap]Y(Carboxymethyl)DW[Cha][Bip][Cit][Orn][dL][Dab][Cha]VTCA-NH2; thioether N-14), for which, under setting [1], the IC50 turned out to be 14.9 nM. On the same count and under the same terms, as for `CC(C)C[C@@H]1NC(=O)[C@H](CC(N)=O)NC(=O)[C@@H](CC(C)C)NC(=O)[C@H](CN)NC(=O)[C@H](C(C)C)NC(=O)[C@H](Cc2ccc(-c3ccccc3)cc2)NC(=O)[C@H](C(C)C)NC(=O)[C@H](Cc2c[nH]c3ccccc23)NC(=O)[C@H](CC(=O)O)NC(=O)[C@H](Cc2ccc(C(=O)O)cc2)NC(=O)[C@H](Cc2ccc(OCC(=O)O)cc2)NC(=O)CSC[C@@H](C(=O)NCC(N)=O)NC(=O)[C@H](CO)NC(=O)[C@H](C(C)C)NC1=O` [Compound 1288] ({CH2CO}-Y(Carboxymethyl)[Phe(4-COOH)]DWV[Bip]V[Dap][dL]NLVSCG-NH2; thioether N-14), the figure is 38.9 nM; as for `Cc1cccc(C[C@@H]2NC(=O)[C@H](CC(N)=O)NC(=O)[C@H](Cc3ccc(C(=O)O)cc3)NC(=O)[C@H](CCN)NC(=O)CSC[C@@H](C(=O)N[C@@H](CCN)C(N)=O)NC(=O)[C@H](CO)NC(=O)[C@H](C(C)(C)O)NC(=O)[C@H](CC3CCCCC3)NC(=O)[C@H](CCN)NC(=O)[C@@H](CC(C)C)NC(=O)[C@H](CCCN)NC(=O)[C@H](Cc3ccc(C(=O)O)cc3)NC(=O)[C@H](Cc3ccc(-c4ccccc4)cc3)NC(=O)[C@H](Cc3ccc(C(=O)O)cc3)NC2=O)c1` [Example 2720] ({CH2CO}-[Dab][Phe(4-COOH)]N[Phe(3-Me)][Phe(4-COOH)][Bip][Phe(4-COOH)][Orn][dL][Dab][Cha][Val(3-OH)]SC[Dab]-NH2; thioether N-14), 101 nM.

With `Cc1cccc(C[C@@H]2NC(=O)[C@H](CC(=O)O)NC(=O)[C@H](Cc3ccc(C(=O)O)cc3)NC(=O)[C@H](Cc3ccncc3)NC(=O)CSC[C@@H](C(=O)N[C@@H](CO)C(N)=O)NC(=O)[C@H]([C@@H](C)O)NC(=O)[C@H](C(C)C)NC(=O)[C@H](CC3CCCCC3)NC(=O)[C@H](CCN)NC(=O)[C@@H](CC(C)C)NC(=O)[C@H](CCCN)NC(=O)[C@H](Cc3ccc(OCC(=O)O)cc3)NC(=O)[C@H](Cc3ccc(-c4ccccc4)cc3)NC(=O)[C@H](Cc3ccc(OCC(=O)O)cc3)NC2=O)c1` [Compound 2310] ({CH2CO}-[4Pal][Phe(4-COOH)]D[Phe(3-Me)]Y(Carboxymethyl)[Bip]Y(Carboxymethyl)[Orn][dL][Dab][Cha]VTCS-NH2; thioether N-14), under setting [1], the IC50 worked out at 7.6 nM. As to `CC(C)C[C@H]1NC(=O)[C@H](CCCN)NC(=O)[C@H](CN)NC(=O)[C@H](Cc2ccc(-c3ccccc3)cc2)NC(=O)[C@H](C(C)C)NC(=O)[C@H](Cc2c[nH]c3ccccc23)NC(=O)[C@H](CC(=O)O)NC(=O)[C@H](Cc2ccc(O)cc2)NC(=O)[C@H](CC(N)=O)NC(=O)CSC[C@@H](C(=O)N[C@@H](C)C(N)=O)NC(=O)[C@H]([C@@H](C)O)NC(=O)[C@H](C(C)C)NC(=O)[C@H](CC2CCCCC2)NC(=O)[C@H](CCN)NC1=O` [Compound 1380], the IC50 under setting [1] turned out to be 16.8 nM.

On to `Cc1cccc(C[C@@H]2NC(=O)[C@H](CC(=O)O)NC(=O)[C@H](Cc3ccc(O)cc3)NC(=O)[C@H](CC(N)=O)NC(=O)CSC[C@@H](C(=O)N[C@@H](C)C(N)=O)NC(=O)[C@H]([C@@H](C)O)NC(=O)[C@H](C(C)C)NC(=O)[C@H](CC3CCCCC3)NC(=O)[C@H](CCN)NC(=O)[C@@H](CC(C)C)NC(=O)[C@H](CCCN)NC(=O)[C@H](CCCNC(N)=O)NC(=O)[C@H](Cc3ccc(-c4ccccc4)cc3)NC(=O)[C@H](CC(C)C)NC2=O)c1` [Compound 1306] ({CH2CO}-NYD[Phe(3-Me)]L[Bip][Cit][Orn][dL][Dab][Cha]VTCA-NH2; thioether N-14), for which the IC50 under setting [1] is 14.6 nM. The same measure, in the same setting: as for `CC(C)C[C@H]1NC(=O)[C@H](CCCN)NC(=O)[C@H](C(C)C)NC(=O)[C@H](Cc2ccc(-c3ccccc3)cc2)NC(=O)[C@H](C(C)C)NC(=O)[C@H](Cc2c[nH]c3ccccc23)NC(=O)[C@H](CC(=O)O)NC(=O)[C@H](Cc2ccc(OCC(=O)O)cc2)NC(=O)[C@H](Cc2ccc(OCC(=O)O)cc2)NC(=O)CSC[C@@H](C(=O)N[C@@H](C)C(N)=O)NC(=O)[C@H](CCCNC(=N)N)NC(=O)[C@H](C(C)C)NC(=O)[C@H](CC2CCCCC2)NC(=O)[C@H](CCN)NC1=O` [Compound 1749] ({CH2CO}-Y(Carboxymethyl)Y(Carboxymethyl)DWV[Bip]V[Orn][dL][Dab][Cha]VRCA-NH2; thioether N-14), the figure is 4.2 nM; as for `Cc1cccc(C[C@@H]2NC(=O)[C@H](CC(=O)O)NC(=O)[C@H](Cc3ccc(C(=O)O)cc3)NC(=O)[C@H](Cc3ccncc3)NC(=O)CSC[C@@H](C(=O)N[C@@H](CCN)C(N)=O)NC(=O)[C@H](CO)NC(=O)[C@H](C(C)(C)O)NC(=O)[C@H](CC3CCCCC3)NC(=O)[C@H](CCN)NC(=O)[C@@H](CC(C)C)NC(=O)[C@H](CCCN)NC(=O)[C@H](Cc3ccc(OCC(=O)O)cc3)NC(=O)[C@H](Cc3ccc(-c4ccccc4)cc3)NC(=O)[C@H](Cc3ccc(OCC(=O)O)cc3)NC2=O)c1` [Compound 2622] ({CH2CO}-[4Pal][Phe(4-COOH)]D[Phe(3-Me)]Y(Carboxymethyl)[Bip]Y(Carboxymethyl)[Orn][dL][Dab][Cha][Val(3-OH)]SC[Dab]-NH2; thioether N-14), 2.7 nM. Same read-out and setting: with `CCC(C)[C@@H]1NC(=O)[C@H](Cc2ccc(-c3ccccc3)cc2)NC(=O)[C@H](C(C)C)NC(=O)[C@H](Cc2cccc(C)c2)NC(=O)[C@H](CC(=O)O)NC(=O)[C@H](Cc2cccnc2)NC(=O)[C@H](CN)NC(=O)CSC[C@@H](C(=O)N[C@@H](C)C(N)=O)NC(=O)[C@H]([C@@H](C)O)NC(=O)[C@H](C(C)C)NC(=O)[C@H](CC2CCCCC2)NC(=O)[C@H](CCN)NC(=O)[C@@H](CC(C)C)NC(=O)[C@H](CCCN)NC1=O` (some centres unmarked) [Compound 2235] the figure was 9.1 nM; with `CC[C@@H](C)[C@@H]1NC(=O)[C@H](Cc2ccc(-c3ccccc3)cc2)NC(=O)[C@H](CC(C)C)NC(=O)[C@H](Cc2cccc(C)c2)NC(=O)[C@H](CC(=O)O)NC(=O)[C@H](Cc2ccc(OCC(=O)O)cc2)NC(=O)[C@H](Cc2ccc(OCC(=O)O)cc2)NC(=O)CSC[C@@H](C(N)=O)NC(=O)[C@H](CO)NC(=O)[C@H](C(C)C)NC(=O)[C@H](CC(C)C)NC(=O)[C@H](CCN)NC(=O)[C@@H](CC(C)C)NC(=O)[C@H](CCCN)NC1=O` [Compound 1653] ({CH2CO}-Y(Carboxymethyl)Y(Carboxymethyl)D[Phe(3-Me)]L[Bip][aIle][Orn][dL][Dab]LVSC-NH2; thioether N-14), 33.5 nM. In the case of `CC(C)C[C@H]1NC(=O)[C@H](CCCN)NC(=O)[C@H](C(C)C)NC(=O)[C@H](Cc2ccc(-c3ccccc3)cc2)NC(=O)[C@H](C2CCCCC2)NC(=O)[C@H](Cc2c[nH]c3ccccc23)NC(=O)[C@H](CC(=O)O)NC(=O)[C@H](Cc2ccc(OCC(=O)O)cc2)NC(=O)[C@H](CN)NC(=O)CSC[C@@H](C(=O)N[C@@H](C)C(N)=O)NC(=O)[C@H]([C@@H](C)O)NC(=O)[C@H](C(C)C)NC(=O)[C@H](CC2CCCCC2)NC(=O)[C@H](CCN)NC1=O` [Compound 1730] ({CH2CO}-[Dap]Y(Carboxymethyl)DW[Chg][Bip]V[Orn][dL][Dab][Cha]VTCA-NH2; thioether N-14), the IC50 (Jurkat HPD1_PDL1 IC50, Jurkat-PD-1 cells) was determined as 32.4 nM. In the case of `Cc1cccc(C[C@@H]2NC(=O)[C@H](CC(=O)O)NC(=O)[C@H](Cc3ccc(OCC(=O)O)cc3)NC(=O)[C@H](CN)NC(=O)CSC[C@@H](C(=O)N[C@@H](C)C(=O)N[C@@H](CCC(=O)O)C(N)=O)NC(=O)[C@H]([C@@H](C)O)NC(=O)[C@H](C(C)C)NC(=O)[C@H](CC3CCCCC3)NC(=O)[C@H](CCN)NC(=O)[C@@H](CC(C)C)NC(=O)[C@H](CCCN)NC(=O)[C@H](CCCNC(N)=O)NC(=O)[C@H](Cc3ccc(-c4ccccc4)cc3)NC(=O)[C@H](C(C)C)NC2=O)c1` [Compound 1296] ({CH2CO}-[Dap]Y(Carboxymethyl)D[Phe(3-Me)]V[Bip][Cit][Orn][dL][Dab][Cha]VTCAE-NH2; thioether N-14), the IC50 under setting [1] came to 13.5 nM.

Values taken from US20250163104A1, “MACROCYCLIC IMMUNOMODULATORS” (priority 2021, published 2025).
